Data from patent publication EP3524067B1, “SPRAY-DRIED MIXTURE OF HUMAN MILK OLIGOSACCHARIDES” (Chr. Hansen HMO GmbH, priority 2018, dated 2019).

What was measured:
[1] = Differential scanning calorimetry (DSC) of spray-dried human milk oligosaccharides; assay type: physicochemical; conditions: spray-dried powder; for Tg, 1st heating scan / Tg, 2nd heating scan: glass transition temperature; for Tg, 1st heating scan: midpoint of endothermic shift, reheated to 100 °C at 10 K/min; for Tg, 2nd heating scan: second heating cycle, reheated to 150 °C; for endothermal event, normalized energy / endothermal event, peak temperature: DSC heating scan (first heating scan where stated)
Source text: Using differential scanning calorimetry (DSC) on a Mettler Toledo 821e (Mettler Toledo, Giessen, Germany) thermal events of spray-dried human milk oligosaccharides, namely 3-fucosyllactose, 6'-sialyllactose, 3'-sialyllactose, lacto-N-tetraose, and spray-dried mixtures of human milk oligosaccharides, a mixture (HMO-Mix I) of 2'-fucosyllactose/lacto-N-tetraose, and a mixture (HMO Mix II) of 2'-fucosyllactose, 3-fucosyllactose, lacto-N-tetraose, 6'-sialyllactose, 3'-sialyllactose, respectively, were determined.
A Mettler Toledo 821e (Mettler Toledo, Giessen, Germany) was used to determine thermal events of the spray-dried products (glass transition temperature (Tg), further exo- and endothermic events).
Approximately 25 mg of the spray-dried human milk oligosaccharides were analyzed in crimped Al-crucibles (Mettler Toledo, Giessen, Germany). The samples were cooled to 0 °C with 10 K/min and reheated to 100 °C with a scanning rate of 10 K/min. After cooling down the samples to 0 °C in a second heating cycle, the samples were reheated to 150 °C. The midpoint of the endothermic shift of the baseline during the heating scan was taken as glass transition temperature (Tg). Exothermic and endothermic peaks are reported by means of the peak temperature and the normalized energy of the event.

[2] = Powder particle size by laser diffraction; assay type: physicochemical; set-up: Size, Mean: unit not given here; conditions: dispersed in isooctane; mean ± standard deviation of 3 measurements
Protocol: The powder particle size was assessed by laser diffraction. The system detects scattered and diffracted light by an array of concentrically arranged sensor elements. The software-algorithm is then approximating the particle counts by calculating the z-values of the light intensity values, which arrive at the different sensor elements. The analysis was executed using a SALD-7500 Aggregate Sizer (Shimadzu Corporation, Kyoto, Japan) quantitative laser diffraction system (qLD).
A small amount (spatula tip) of each sample was dispersed in 2 ml isooctane and homogenized by ultrasonication for five minutes. The dispersion was transferred into a batch cell filled with isooctane and analyzed in manual mode.
Data acquisition settings were as follows: Signal Averaging Count per Measurement: 128, Signal Accumulation Count: 3, and Interval: 2 seconds.
Prior to measurement, the system was blanked with isooctane. Each sample dispersion was measured 3 times and the mean values and the standard deviation are reported. Data was evaluated using software WING SALD II version V3.1. Since the refractive index of the sample was unknown, the refractive index of sugar (disaccharide) particles (1.530) was used for determination of size distribution profiles. Size values for mean and median diameter are reported.

| Tg, 1st heating scan [1] | Tg, 2nd heating scan [1] | endothermal events ([1]; result in words) | Size, Median [2] | endothermal event, normalized energy [1] | endothermal event, peak temperature [1] | Tg, 2nd heating scan ([1]; listed as lacto-N-tetraose) | Size, Mean [2] | endothermal relaxation peak after Tg ([1]; first heating scan, result in words) | Structure (SMILES) |
| --- | --- | --- | --- | --- | --- | --- | --- | --- | --- |
| 48,8 °C | 54,3 °C | No endothermal events were detected | 122 ± 16.7 µm | – | – | – | – | – | CC(=O)N[C@H]1[C@H]([C@H](O)[C@H](O)CO)O[C@@](O[C@H]2[C@@H](O)[C@@H](CO)O[C@@H](O[C@H]3[C@H](O)[C@@H](O)C(O)O[C@@H]3CO)[C@@H]2O)(C(=O)O)C[C@@H]1O (some centres unmarked) [3'-sialyllactose] |
| 49,9 °C | 79,4 °C | – | 141 µm | -6.04 J/g | about 89 °C | about 79 °C | 117.3 ± 0.7 | – | CC(=O)N[C@H]1[C@H](O[C@H]2[C@@H](O)[C@@H](CO)O[C@@H](O[C@H]3[C@H](O)[C@@H](O)C(O)O[C@@H]3CO)[C@@H]2O)O[C@H](CO)[C@@H](O)[C@@H]1O[C@@H]1O[C@H](CO)[C@H](O)[C@H](O)[C@H]1O (some centres unmarked) [Lacto-N-tetraose, lacto-N-tetraose] |
| 47,6 °C | 49,6 °C | – | 141 µm | -0.22 J/g | 77 °C | – | – | detected | CC(=O)N[C@H]1[C@H]([C@H](O)[C@H](O)CO)O[C@@](OC[C@H]2O[C@@H](O[C@H]3[C@H](O)[C@@H](O)[C@H](O)O[C@@H]3CO)[C@H](O)[C@@H](O)[C@H]2O)(C(=O)O)C[C@@H]1O [6'-sialyllactose] |
